One assay relates to pi3K. As to the kind of experiment: pi3K kinase inhibition, % activity at 0.03 μM (kinases panel screening). The following applies: 0.03 μM compound. The format is biochemical. An excerpt: (§1) In vitro kinase inhibition activities included Pi3k and mTor activities can be tested with Millipore/Merck KGA of Europe in their kinases panel screening. Animal antitumor activity testing can be conducted by various cancer xenograft models for a compound of formula I. […]

The next assay has as its target T1, mTor (Homo sapiens, UniProt P42345).
T1 construct: purchased Millipore/Merck KGA of Europe (panel screening service)
In words: mTor kinase inhibition, % activity at 0.03 μM (kinases panel screening). The format is biochemical. The following applies: 0.03 μM compound.
From the text: as §1

Regarding “N-(5-{16-[4-(1-cyano-1-methylethyl)phenyl]-8,11,13,14,16-pentaazatetracyclo[8.6.0.0^2,^7.0^11,^1^5]-hexadeca-1(10),2,4,6,8,12,14-heptaen-4-yl}pyridin-2-yl)-2-(cyclopentylamino)acetamide”, the “pi3K % activity @0.03 μM” value in the assay with pi3K stood at 71%. At mTor, the “mTor % activity @0.03 μM” value is reported as −2%.
The matching figures for “N-(5-{16-[4-(1-cyano-1-methylethyl)phenyl]-8,11,13,14,16-pentaazatetracyclo[8.6.0.0^2,^7.0^11,^1^5]-hexadeca-1(10), 2,4,6,8,12,14-heptaen-4-yl)}pyridin-2-yl)-2-(cyclohexylamino)acetamide”: 79% and 3%.
For the substance “N-(5-{16-[4-(1-cyano-1-methylethyl)phenyl]-8,11,13,14,16-pentaazatetracyclo[8.6.0.0^2,^7.0^11,^1^5]-hexadeca-1(10), 2,4,6,8,12,14-heptaen-4-yl)}pyridin-2-yl)-2-(methylamino)acetamide”, in the assay with pi3K, the “pi3K % activity @0.03 μM” value amounted to 39%. On mTor, the “mTor % activity @0.03 μM” value is reported as 0%.
Take “N-(5-{16-[4-(1-cyano-1-methylethyl)phenyl]-8,11,13,14,16-pentaazatetracyclo[8.6.0.0^2,^7.0^11,^1^5]-hexadeca-1(10), 2,4,6,8,12,14-heptaen-4-yl)}pyridin-2-yl)-2-(oxan-4-ylamino)acetamide”: the “pi3K % activity @0.03 μM” value with pi3K was found to be 68%. At mTor, the “mTor % activity @0.03 μM” value is on record as −1%.
In the same order, the values of “N-{5-[16-(4-tert-butylphenyl)-8,11,13,14,16-pentaazatetracyclo[8.6.0.0^2,^7.0^11,^1^5]hexadeca-1(10),2,4,6,8,12,14-heptaen-4-yl]pyridin-2-yl}-2-(pyrrolidin-1-yl)acetamide” are 88% and 27%.
